Results from paper PMC2195891 (2006).

System: human telomeric quadruplex (Htelo), 5'-biotin SPR strand (DNA, G4) GTTAGGGTTAGGGTTAGGGTTAGGGTTAGG
Assay: SPR, equilibrium response
Conditions: K+ 100 mM (KCl), 50 mM Tris-HCl pH 7.4

KD (up to 25 μM) [µM] | KD (up to 6.25 μM) [µM] | Structure (SMILES)
18.90 ± 2.80 |  | C[n+]1ccc(-c2c3nc(c(-c4cc[n+](C)cc4)c4ccc(cc5nc(cc6ccc2[nH]6)C=C5)[nH]4)C=C3)cc1
 | 0.63 ± 0.08 | C[n+]1ccc(-c2c3nc(c(-c4cc[n+](C)cc4)c4ccc([nH]4)c(-c4cc[n+](C)cc4)c4nc(c(-c5cc[n+](C)cc5)c5ccc2[nH]5)C=C4)C=C3)cc1
 | 0.83 ± 0.10 | C[n+]1ccc(-c2c3nc(cc4ccc([nH]4)c(-c4cc[n+](C)cc4)c4nc(cc5ccc2[nH]5)C=C4)C=C3)cc1
5.88 ± 0.90 |  | C[n+]1ccc(-c2c3nc(c(-c4cc[n+](C)cc4)c4ccc([nH]4)c(-c4cc[n+](C)cc4)c4nc(cc5ccc2[nH]5)C=C4)C=C3)cc1
